Measured values taken from patent US9464120B2, “Compositions for treatment of celiac disease” (ImmusanT, Inc., priority 2008, dated 2016).
Square brackets hold non-standard residues; d marks the D form. Peptide text beside a SMILES is read from it. pGlu = O=C1CC[C@@H](C(=O)O)N1

Experiments:
[1] = tested on: gluten peptide-specific T cells in PBMC from HLA-DQ2+ celiac disease donors; assay: IFNγ ELISpot of PBMC collected on day 6 after oral gluten challenge; assay type: cell-based, human; details: for donors with IFNγ ELISpot response: 9 HLA DQ2 celiac disease donors, PBMC day 6 after wheat gluten challenge, 17mer and 33mer at 5 μM; for requirement for deamidation for T cell stimulation / dominance according to the grain consumed: second round libraries; for relative T-cell stimulatory activity: PBMC after wheat challenge, tTG pre-treated or glutamate substituted; for dominance according to the grain consumed: wheat, barley or rye gluten challenge; for activity relative to α-gliadin p57-73 QE65: pre-treated with tTG or with glutamate at position 9, 25 μg/ml, mean±SEM, n=5 donors
[2] = Pharmacokinetics after bolus intradermal injection in an adult rat; assay type: in vivo; details: rat, in vivo, 0.9 mg; for half-life: T1/2 half life
Protocol: To improve their chemical stability and increase resistance to exopeptidases, peptides were synthesised as acetate salts of “capped” N-pyroglutamate, C-amide: NPL001 (SEQ ID NO:228), NPL002 (SEQ ID NO:229) and NPL003 (SEQ ID NO:230) 15mers or 16mers with glutamate at sites predicted to be deamidated by tTG. Indeed, capping extended the half-lives of peptides from 10-12 minutes for free peptides: NPL033, NPL038, and NPL034 (SEQ ID NOs:13, 320 and 321) after bolus intradermal injection of 0.9 mg in 0.1 ml in an adult rat to 26-28 minutes with N-pyroglutamate and C-amidation (SEQ ID NOs:228, 229 and 230) or 19-24 minutes with N-acetylation and C-amidation (SEQ ID NOs:231, 232, and 233), (see Table 4).

Q: Which “donors with IFNγ ELISpot response” value [1] does the source give for “QLQPFPQPELPYPQPQL (variant of alpha-gliadin p57-73 QE65) [SEQ ID NO:46]” here?
A: 7 donors

Q: For `CC(=O)N[C@@H](CCC(N)=O)C(=O)N[C@@H](CCC(N)=O)C(=O)N1CCC[C@H]1C(=O)N[C@@H](Cc1ccccc1)C(=O)N1CCC[C@H]1C(=O)N[C@@H](CCC(N)=O)C(=O)N1CCC[C@H]1C(=O)N[C@@H](CCC(=O)O)C(=O)N[C@@H](CCC(N)=O)C(=O)N1CCC[C@H]1C(=O)N[C@@H](Cc1ccccc1)C(=O)N1CCC[C@H]1C(=O)N[C@@H](Cc1c[nH]c2ccccc12)C(=O)N[C@@H](CCC(N)=O)C(=O)N1CCC[C@H]1C(N)=O` [NPL031, Ac-QQPFPQPEQPFPWQP-amide] (Ac-QQPFPQPEQPFPWQP-NH2), which “AUC area under the curve (bioavailability)” value (“AUC area under the curve” for short) [2] is on record?
A: AUC 80263

Q: And the T1/2 half life [2]?
A: T1/2 22.9 minutes

Q: And the half-life [2]?
A: 19 to 24 min

Q: Which “AUC area under the curve” value [2] does the source give for `CC[C@H](C)[C@H](NC(=O)[C@@H]1CCCN1C(=O)[C@H](CCC(N)=O)NC(=O)[C@H](CCC(=O)O)NC(=O)[C@@H]1CCCN1C(=O)[C@H](Cc1ccccc1)NC(C)=O)C(=O)N1CCC[C@H]1C(=O)N[C@@H](CCC(=O)O)C(=O)N[C@@H](CCC(N)=O)C(=O)N1CCC[C@H]1C(=O)N[C@@H](CCC(N)=O)C(=O)N1CCC[C@H]1C(=O)N[C@@H](Cc1ccc(O)cc1)C(=O)N1CCC[C@H]1C(=O)N[C@@H](CCC(N)=O)C(=O)N[C@@H](CCC(N)=O)C(N)=O` [NPL032, Ac-FPEQPIPEQPQPYPQQ-amide] (Ac-FPEQPIPEQPQPYPQQ-NH2) here?
A: AUC 8206

Q: What about the T1/2 half life [2] of the same molecule?
A: T1/2 12.5 minutes

Q: And the half-life [2]?
A: 19 to 24 min

Q: Which half-life [2] does the source give for `CC[C@H](C)[C@H](NC(=O)[C@@H]1CCCN1C(=O)[C@H](CCC(N)=O)NC(=O)[C@H](CCC(=O)O)NC(=O)[C@@H]1CCCN1C(=O)[C@@H]1CCC(=O)N1)C(=O)N1CCC[C@H]1C(=O)N[C@@H](CCC(=O)O)C(=O)N[C@@H](CCC(N)=O)C(=O)N1CCC[C@H]1C(=O)N[C@@H](CCC(N)=O)C(=O)N1CCC[C@H]1C(=O)N[C@@H](Cc1ccc(O)cc1)C(=O)N1CCC[C@H]1C(=O)N[C@@H](CCC(N)=O)C(=O)N[C@@H](CCC(N)=O)C(N)=O` [NPL003, pyroEPEQPIPEQPQPYPQQ-amide] ([pGlu]PEQPIPEQPQPYPQQ-NH2) here?
A: 26 to 28 min

Q: Which “AUC area under the curve” value [2] does the source give for `CC(=O)N[C@@H](CCC(N)=O)C(=O)N[C@@H](CC(C)C)C(=O)N[C@@H](CCC(N)=O)C(=O)N1CCC[C@H]1C(=O)N[C@@H](Cc1ccccc1)C(=O)N1CCC[C@H]1C(=O)N[C@@H](CCC(N)=O)C(=O)N1CCC[C@H]1C(=O)N[C@@H](CCC(=O)O)C(=O)N[C@@H](CC(C)C)C(=O)N1CCC[C@H]1C(=O)N[C@@H](Cc1ccc(O)cc1)C(=O)N1CCC[C@H]1C(=O)N[C@@H](CCC(N)=O)C(=O)N1CCC[C@H]1C(=O)N[C@@H](CCC(N)=O)C(N)=O` [NPL030, Ac-QLQPFPQPELPYPQPQ-amide] (Ac-QLQPFPQPELPYPQPQ-NH2) here?
A: AUC 43474

Q: And the T1/2 half life [2]?
A: T1/2 19.4 minutes

Q: What about the half-life [2] of the same molecule?
A: 19 to 24 min

Q: With QGQPGYYPTSPQQIGQ (W22) as the molecule, how does the “requirement for deamidation for T cell stimulation” value (from here on “requirement for deamidation”) [1] read?
A: Exceptions to the requirement for deamidation

Q: Which “requirement for deamidation” value [1] does the source give for GQGQSGYYPTSPQQSG (W29) here?
A: Exceptions to the requirement for deamidation

Q: For “PQPQPFLPQLPYPQPQS (gluten derived peptide) [W09]”, which “relative T-cell stimulatory activity” value [1] is on record?
A: almost as active as 17mers encompassing DQ2-α-II

Q: For PGQGQSGYYPTSPQQS (W24), which “requirement for deamidation” value [1] is on record?
A: Exceptions to the requirement for deamidation

Q: For “QLQPFPQPELPYPQPQP (gluten derived peptide) [SEQ ID NO:225]”, which “dominance according to the grain consumed” value (from here on “dominance according”) [1] is on record?
A: dominant only after wheat gluten challenge

Q: For “QPQQPFPQPEQPFPWQP (Q3 E10 variant) [SEQ ID NO:54]”, which “relative T-cell stimulatory activity” value [1] is on record?
A: optimal immunogenicity

Q: What does the source list for `NC(=O)CC[C@H](NC(=O)[C@@H]1CCCN1)C(=O)N[C@@H](CCC(N)=O)C(=O)N1CCC[C@H]1C(=O)N[C@@H](Cc1ccccc1)C(=O)N1CCC[C@H]1C(=O)N[C@@H](CCC(N)=O)C(=O)N1CCC[C@H]1C(=O)N[C@@H](CCC(=O)O)C(=O)N[C@@H](CCC(N)=O)C(=O)N1CCC[C@H]1C(=O)N[C@@H](Cc1ccccc1)C(=O)N1CCC[C@H]1C(=O)N[C@@H](Cc1c[nH]c2ccccc12)C(=O)N[C@@H](CCC(N)=O)C(=O)N1CCC[C@H]1C(=O)O` [NPL038, PQQPFPQPEQPFPWQP] (H-PQQPFPQPEQPFPWQP-OH)?
A: AUC area under the curve (bioavailability) [2]: AUC 22393; T1/2 half life [2]: T1/2 13.2 minutes; half-life [2]: 10 to 12 min

Q: For “QPFPQQPEQIIPQQ (gluten derived peptide) [SEQ ID NO:323]”, which “dominance according” value [1] is on record?
A: only after rye gluten challenge

Q: With `CC(C)C[C@H](NC(=O)[C@H](CCC(=O)O)NC(=O)[C@@H]1CCCN1C(=O)[C@H](CCC(N)=O)NC(=O)[C@@H]1CCCN1C(=O)[C@H](Cc1ccccc1)NC(=O)[C@@H]1CCCN1C(=O)[C@H](CCC(N)=O)NC(=O)[C@@H](N)CC(C)C)C(=O)N1CCC[C@H]1C(=O)N[C@@H](Cc1ccc(O)cc1)C(=O)N1CCC[C@H]1C(=O)N[C@@H](CCC(N)=O)C(=O)N1CCC[C@H]1C(=O)N[C@@H](CCC(N)=O)C(=O)O` [NPL033, LQPFPQPELPYPQPQ] (H-LQPFPQPELPYPQPQ-OH) as the molecule, how does the “AUC area under the curve” value [2] read?
A: AUC 2618

Q: And the half-life [2]?
A: 10 to 12 min

Q: For “PQQPFPQPELPFPQQSE (deamidated AAG17702 (141-157)) [SEQ ID NO:29]”, which “activity relative to α-gliadin p57-73 QE65” value [1] is on record?
A: 32±6%

Q: Which “relative T-cell stimulatory activity” value [1] does the source give for QPEQPFPQPEQPFPWQP (W03-E7) here?
A: equivalent in bioactivity

Q: What about the “dominance according” value [1] of the same molecule?
A: universal dominant T cell stimulatory peptide in gluten

Q: With PQQPIPEQPQPYPQQP (B08-E7) as the molecule, how does the “dominance according” value [1] read?
A: only after barley gluten challenge

Q: With “LQLQPFPQPELPYPQPELPYPQPELPYPQPQPF (deamidated alpha2-gliadin 56-88) [33mer, reference compound]” as the molecule, how does the “donors with IFNγ ELISpot response” value [1] read?
A: 7 donors

Q: Which “requirement for deamidation” value [1] does the source give for QYEVIRSLVRTLPNM (QYEVIRSLVLRTLPNM; W36) here?
A: Exceptions to the requirement for deamidation

Q: Which “activity relative to α-gliadin p57-73 QE65” value [1] does the source give for PQQPFPQPQLPFPQQSE (AAG17702 (141-157)) here?
A: 32±6%

Q: With “15mer encompassing deamidated DQ2-γ-IV: deamidated 15mer encompassing the epitope DQ2-γ-IV SQPEQEFPQ reported for intestinal T cell clones [reference compound]” as the molecule, how does the “donors with IFNγ ELISpot response” value [1] read?
A: One

Q: With `CC[C@H](C)[C@H](NC(=O)[C@@H]1CCCN1C(=O)[C@H](CCC(N)=O)NC(=O)[C@H](CCC(=O)O)NC(=O)[C@@H]1CCCN1C(=O)[C@@H](N)Cc1ccccc1)C(=O)N1CCC[C@H]1C(=O)N[C@@H](CCC(=O)O)C(=O)N[C@@H](CCC(N)=O)C(=O)N1CCC[C@H]1C(=O)N[C@@H](CCC(N)=O)C(=O)N1CCC[C@H]1C(=O)N[C@@H](Cc1ccc(O)cc1)C(=O)N1CCC[C@H]1C(=O)N[C@@H](CCC(N)=O)C(=O)N[C@@H](CCC(N)=O)C(=O)O` [NPL034, FPEQPIPEQPQPYPQQ] (H-FPEQPIPEQPQPYPQQ-OH) as the molecule, how does the half-life [2] read?
A: 10 to 12 min

Q: For QGQQGYYPISPQQSGQ (W21), which “requirement for deamidation” value [1] is on record?
A: Exceptions to the requirement for deamidation

Q: For “PQPQPFLPELPYPQPQS (gluten derived peptide) [SEQ ID NO:26]”, which “relative T-cell stimulatory activity” value [1] is on record?
A: almost as active as 17mers encompassing DQ2-α-II
